# Measured values published in US6518302B1, “Remedies” (Takara Shuzo Co., Ltd., priority 1999, dated 2003).
# What was measured:
# [1] = system: PGE2 production in celiac macrophages; test: PGE2 production of celiac macrophages from orally dosed mice; format: in vivo; conditions: 1% suspension in olive oil, forced oral administration once a day, 12 times in 15 days, 10 or 30 ml/kg, ddY mice
# Protocol: The compound (7) in Example 1 was suspended in olive oil (Nacalai Tesque) at a concentration of 1% to prepare a 1% suspension of the compound (7). The 1% suspension of the compound (7) prepared as described above was administered to ddY mice (Japan SLC, female, 7 weeks old) by forced oral administration once a day, 12 times in 15 days, at a dosage of 10 or 30 ml/kg. Tap water was similarly administered by forced oral administration as a control. Each group consisted of 3 mice. Thereafter, 4 ml of RPMI 1640 medium (Bio Whittaker, Code. 12-702F) containing 10% fetal calf serum was intraperitoneally injected. Media removed from 3 mice after extensive massage were combined to obtain celiac cells. The celiac cells were suspended in RPMI 1640 medium containing 10% fetal calf serum at a concentration of 10^6 cells/ml. 500 μl of the suspension was added to each well of a 48-well microtiter plate and the plate was incubated at 37° C. for 2 hours in the presence of 5% CO2. Adhesive cells obtained by removing the culture supernatant were used as celiac macrophages. […] After the plate was incubated for additional 12 hours, the amount of prostaglandin E2 (PGE2) was measured. […] After cultivation, the amount of prostaglandin E2 in the culture supernatant was measured using Prostaglandin E2 ELISA Kit (Neogen, Code. 404110). […]
# [2] = system: HL-60 (ATCC CCL-240) cells; test: Measurement of apoptotic cells using FACScan; format: cell-based, Human; conditions: HL-60 cells, cultured for 24 or 48 hours
# Protocol: HL-60 (ATCC CCL-240) cells were cultured at 37° C. in RPMI 1640 medium (Bio Whittaker) containing 10% fetal calf serum (JRH) which had been treated at 56° C. for 30 minutes and suspended in RPMI 1640 medium at a concentration of 2.5×10^5 cells/4.5 ml. […] each of aqueous solutions of the compound (2) at a concentration of 10, 50 or 100 mM, the compound (7) at a concentration of 500, 1000 or 1500 μM, the compound (9) at a concentration of 750, 1500 or 3000 μM, the compound (11) at a concentration of 750, 1500 or 3000 μM, or the compound (14) at a concentration of 750, 1500 or 3000 μM was added to 4.5 ml of the suspension. The mixtures were incubated at 37° C. for 24 hours in the presence of 5% CO2. Measurement of apoptotic cells using FACScan as described in Saibo Kogaku, Bessatsu (Cell Technology, Suppl.) Jikken Protocol Series: Apoptosis Jikken Protocol (Experimental Protocol Series: Experimental Protocols for Apoptosis) (Shujun-sha) pp. 129-130 and analysis of DNA fragmentation as described in Bio Manual UP Series: […] Apoptosis Jikken-ho (Bio Manual UP Series: Current Experimental Methods for Apoptosis) (Yodo-sha) pp. 61-63 were carried out using cells cultured for 24 or 48 hours in the same manner as that described above.
# [3] = system: HL-60 (ATCC CCL-240) cells; test: Apoptosis morphology in HL-60 cells under optical microscope; format: cell-based, Human; conditions: 24 hours
# Protocol: HL-60 (ATCC CCL-240) cells were cultured at 37° C. in RPMI 1640 medium (Bio Whittaker) containing 10% fetal calf serum (JRH) which had been treated at 56° C. for 30 minutes and suspended in RPMI 1640 medium at a concentration of 2.5×10^5 cells/4.5 ml. […] each of aqueous solutions of the compound (2) at a concentration of 10, 50 or 100 mM, the compound (7) at a concentration of 500, 1000 or 1500 μM, the compound (9) at a concentration of 750, 1500 or 3000 μM, the compound (11) at a concentration of 750, 1500 or 3000 μM, or the compound (14) at a concentration of 750, 1500 or 3000 μM was added to 4.5 ml of the suspension. The mixtures were incubated at 37° C. for 24 hours in the presence of 5% CO2. The cultured cells were examined under an optical microscope.
# [4] = system: NO production in celiac macrophages; test: NO production of celiac macrophages from orally dosed mice; format: in vivo; conditions: 1% suspension in olive oil, forced oral administration once a day, 12 times in 15 days, 10 or 30 ml/kg, ddY mice
# Protocol: The compound (7) in Example 1 was suspended in olive oil (Nacalai Tesque) at a concentration of 1% to prepare a 1% suspension of the compound (7). The 1% suspension of the compound (7) prepared as described above was administered to ddY mice (Japan SLC, female, 7 weeks old) by forced oral administration once a day, 12 times in 15 days, at a dosage of 10 or 30 ml/kg. Tap water was similarly administered by forced oral administration as a control. Each group consisted of 3 mice. Thereafter, 4 ml of RPMI 1640 medium (Bio Whittaker, Code. 12-702F) containing 10% fetal calf serum was intraperitoneally injected. Media removed from 3 mice after extensive massage were combined to obtain celiac cells. The celiac cells were suspended in RPMI 1640 medium containing 10% fetal calf serum at a concentration of 10^6 cells/ml. 500 μl of the suspension was added to each well of a 48-well microtiter plate and the plate was incubated at 37° C. for 2 hours in the presence of 5% CO2. Adhesive cells obtained by removing the culture supernatant were used as celiac macrophages. 500 μl of fresh Dulbecco's modified Eagle's medium (Bio Whittaker, Code. 12-917F) without Phenol Red containing 10% fetal calf serum and 2 mM L-glutamine was added to each well. […] The concentration of NO2^− resulting from oxidation of NO in the medium was then measured as described in Example 6. […]
structure (smiles),measurement,setting,value
"O=C[C@H](O)[C@H]1OC[C@@H](O)[C@@H]1OC(=O)c1ccccc1 [Compound (7), 4-O-benzoyl-3,6-anhydro-D-galactose]",activity of inhibiting PGE2 production in celiac macrophages (LPS),[1],remarkable activity of inhibiting PGE2 production
same,final concentration at which apoptotic cells were observed,[2],≥ 100 µM
same,"final concentration at which condensation of nuclei, shrinking of cells and formation of apoptotic bodies were observed",[3],≥ 100 µM
same,activity of inhibiting NO production in celiac macrophages (LPS and IFN-γ),[4],remarkable activity of inhibiting NO production
